Here are results for eleven compounds from patent publication US4579867A, “Stable pharmaceutical compositions of short-acting β-adrenergic receptor blocking agents” (American Hospital Supply Corporation, priority 1984, dated 1986).

Data set [1] can be described thus: Solubility in various vehicles (HPLC). It counts as physicochemical. As to the method:
Initially, the solubility of the compound was determined in various vehicles. The amount dissolved was measured by HPLC (Table 2). […] Based on this acidic nature, a tartrate buffer was selected. It was foun that the molar ratio of active β-blocking agent to buffer was critical, 1:1 to 3:1 to stabilized product.
Samples were dissolved or diluted with the mobile phase, methanol--pH 3.4 phosphate buffer solution. The resulting solutions were diluted with benzoic acid internal standard solution and chromatographed on a octadecyl silane column with detection at 229 nm. […] The method is linear, quantitative, rugged and reproducible with a sensitivity of 2 ug/ml. Either peak height or peak area ratios can be used for quantitation.

A short description of data set [2]: Comparison of degradation in aqueous solution and in the formulation (forced degradation, HPLC). It counts as physicochemical. The following applies: 75° C.; for degraded at 168 h: one week. How it is done:
The sulfate salt of the compound of Formula II in aqueous solution when stored at 75° C. degraded about 70% in one week. In contrast, when formulated in the pharmaceutical composition as noted and placed under the same storage conditions, it degraded only about 25%.
The results of this comparison are represented in FIG. 5. Samples for the study were prepared and tested as follows:
b. Aqueous at 75° C.--10 mg of sulfate salt of Formula II were dissolved in 100 mL of deionized water. A 2 mL portion of this solution was transferred to a vial and placed in a 75° C. oven. A series of vials were prepared and evaluated at various intervals. Each time 2 mL of mobile phase was added to the vial (final conc. 50 μg/mL) for subsequent HPLC evaluation. The results are plotted as curve B in FIG. 5.
c. Forced Degradation of the Formulation was carried out using a solution containing the sulfate salt of Formula II, 100 mg/mL, in Acetate Buffer (0.35M) containing 20% of Propylene Glycol:Ethanol (50:50) having a pH 3.17. The formulation solution was divided into 2 parts, placed in 55° C. and 75° C. ovens and tested periodically. To evaluate the formulation, the solution was diluted 1 mL to 100 mL of mobile phase, then 5 mL to 100 mL in mobile phase (final conc.--50 μg/mL) for subsequent HPLC evaluation.
The rates of decomposition were monitored by HPLC and compared to the respective initial concentrations at 220 nm. In order to insure that the peak was that of the sulfate salt and not an impurity, excipient or product of decomposition, the peak was scanned using a variable wavelength detector ([…]). Using the Perkin-Elmer LC-75 Detector Stop Flow System described below:
A 70 μL portion of the sulfate salt degraded samples were injected manually into the HPLC L-75 equipped with a variable wavelength detector, programmed to scan wavelengths from 200 to 320 nm. When the sulfate salt reached the detector cell, the flow of mobile phase was stopped and the scan initiated from 200 to 320 nm. In this manner, only the peak corresponding to the sulfate salt was measured.

For another data set, the system named is β-adrenergic receptor. Description: β-blocking activity and recovery from β-blockade in anesthetized dogs (isoproterenol heart rate response, 3-hour infusion). The format is in vivo. To be noted: for Potency: 3-hour infusion, rate adjusted to about 50% isoproterenol inhibition, pentobarbital-anesthetized dogs; for Recovery Time 50%: 50% recovery from β-blockade after termination of infusion; for % I (percent inhibition of heart rate response to isoproterenol): end of 3-hour infusion, isoproterenol 0.5 μg/kg. As to the method:
The duration of β-blockade was determined in vivo using pentobarbital-anesthetized dogs instrumented for measurement of heart rate using a Beckman cardiotachometer triggered electronically by a phasic aortic blood pressure signal. Both vagus nerves were severed in the cervical region and the animals were mechanically ventilated. The experimental design used employed a 3-hour infusion of test compound. Bolus doses of isoproterenol (0.5 μg/kg) were used to assess the degree of β-blockade and recovery from β-blockade after […] of the infusion. The doses were spaced at 10-minute intervals and were given before, during and following the infusion of test compounds. The infusion rate was adjusted so that at the end of the 3-hour infusion period the degree of isoproterenol inhibition averaged about 50% of control.

Another data set is described as follows: pKa. It counts as physicochemical.
The nature of data set [3]: Kinetic degradation study in solution at 75° C. It counts as physicochemical. How it is done: In order to determine the pH at which the formulation would show maximum stability, a kinetic degradation study was employed. pH of solutions ranging from 2-4, containing 0.1M each of the compound of formula II and tartrate buffer were stored at 75° C. At various time intervals, samples were taken and assayed for the compound.
The kinetic data obtained was plotted as a log of drug concentration versus time. The apparent first-order rate constants were calculated from the slopes of the linear regression lines fitted to log (C)=log (Co)[…] where C is drug concentration at time t, Co is the initial drug concentration and k is the apparent first-order rate constant.
The logarithm of the potency versus time in all cases produced linear plots. The apparent first-order rate constants were calculated from the slopes of the linear regression lines (not shown) and are presented in FIG. 1.
The ratio of the two organic vehicles, namely propylene glycol and alcohol were determined by making solutions of the compound of formula II in the vehicle and testing the stability at 75° C. Samples were removed after specified times and measured for potency.
FIG. 3 illustrates the stability of the compound of formula II in hydroalcoholic solution buffered at pH 3 by sodium tartrate. An identical stability study was conducted with a solution without buffering agent (FIG. 4).

The nature of data set [4]: Shelf life / storage stability of solutions. The format is physicochemical. To be noted: within a week; room temperature; without stabilization; read-out: potency loss.

Each structure is given as a SMILES string. Converted amounts (≈) assume the structure as drawn. “And” between values parts separate entries of the source, which are not always exact repeats. Identical values can stand only once. Like-named read-outs stand apart in the source and are kept apart here.

For `CC(C)(CNC(N)=O)NCC(O)COC(=O)c1ccccc1F` (centres unmarked), the Solubility in data set [1] (Alcohol USP (EtOH)) is recorded as 2.24 % w/w; in data set [1] (Polyethylene Glycol 200 USP (PEG)) it was 2.64 % w/w; in data set [1] (Propylene Glycol USP (PG)) it was 3.47 % w/w; in data set [1] (WFI (5%), EtOH (45%), PEG (50%)) it was 5.21 % w/w; in data set [1] (WFI (5%), EtOH (45%), PG (50%)), 7.20 % w/w; in data set [1] (WFI (5%), EtOH (95%)) it was 7.50 % w/w. Further, the Solubility is 3.83 % w/w in data set [1] (WFI (5%), PEG (95%)); 56 mg/mL (≈ 171 mM) in data set [1] (WFI (5%), PG (95%), read-out: Solubility); 507 mg/mL (≈ 1550 mM) in data set [1] (Water for Injection USP (WFI), read-out: Solubility). Also, the degraded at 168 h in data set [2] (formulated in the pharmaceutical composition) was approximately 25%; in data set [2] (aqueous solution (deionized water), aqueous solution), approximately 70%. In addition, the increase in stability entry in data set [2] (formulated vs aqueous solution) was “three fold increase in stability”.

Turning to `CC(=O)NCC(C)(C)NCC(O)COC(=O)c1ccccc1F` (centres unmarked) [Compound 4], the Potency with β-adrenergic receptor came to 2.7 mg/kg/180 min.

As to `CC(C)C(=O)NCC(C)(C)NCC(O)COC(=O)c1ccccc1F` (centres unmarked) [Compound 5], in the data set with β-adrenergic receptor, the Potency is listed as 0.6 mg/kg/180 min.

The compound `CC(C)(CNC(=O)C1CCCCC1)NCC(O)COC(=O)c1ccccc1F` (centres unmarked) [Compound 6] gave a Potency with β-adrenergic receptor of 1.4 mg/kg/180 min.

Consider `CC(C)(CNC(=O)C1CCCCC1)NCC(O)COC(=O)c1ccccc1F` (centres unmarked) [Compound 7], for which the Potency with β-adrenergic receptor stood at 1.8 mg/kg/180 min. Moreover, in the data set with β-adrenergic receptor (dogs), the “Recovery Time 50%” value is given as 8 min and the “% I (percent inhibition of heart rate response to isoproterenol)” value is on record as 68%. Also, the “Recovery Time 80%” value in the data set with β-adrenergic receptor (80% recovery from β-blockade after termination of infusion, dogs) stood at 19 min.

In the case of `O=C(CC1CCCCC1)NCCNCC(O)COC(=O)c1ccccc1F` (centres unmarked) [Compound 8], in the data set on β-adrenergic receptor (dogs), the “Recovery Time 50%” value is recorded as 3,4 min; the “% I (percent inhibition of heart rate response to isoproterenol)” value was 43% and 55%.

`CC(C)(CNC(=O)N1CCOCC1)NCC(O)COC(=O)c1ccc(O)c(O)c1` (centres unmarked) [Compound 12] came in with a Potency in the data set on β-adrenergic receptor of 0.08 mg/kg/180 min.

As for `CC(C)(CNC(N)=O)NCC(O)COC(=O)c1ccccc1F` (centres unmarked) [Compound 17], the Potency with β-adrenergic receptor was determined as 0.7 mg/kg/180 min.

Consider `CCOC(=O)NCC(C)(C)NCC(O)COC(=O)c1ccccc1F` (centres unmarked) [Compound 21], for which, in the data set with β-adrenergic receptor, the Potency is 6.5 ± 1.8 mg/kg/180 min.

`CC(C)NCC(O)COc1cccc2ccccc12` (centres unmarked) [Propranolol, reference compound]: the Potency in the data set on β-adrenergic receptor is 0.2 mg/kg/180 min. Further, the “% I (percent inhibition of heart rate response to isoproterenol)” value in the data set on β-adrenergic receptor (dogs) amounted to 67 ± 6%.

Broadly, the pKa is the pH at which an ionisable group is half protonated. A low value points to a group that gives up its proton readily. As for `CC(C)(CNC(N)=O)NCC(O)COC(=O)c1ccccc1F` (centres unmarked) [compound of formula II, N-(1,1-Dimethyl-2-ureidoethyl)-2-hydroxy-3-(O-fluorobenzoyloxy) propylamine], the pKa in the data set “pKa” amounted to 8.17. Further, in data set [3] (FIG. 2), the “propylene glycol to alcohol ratio and degradation” value is recorded as 1:1 ratio of the two substances minimizes degradation. Further, the “rate of degradation (slope)” value in data set [3] (hydroalcoholic solution (15% propylene glycol, 15% alcohol) buffered at pH 3 by sodium tartrate) is 0.0387 day⁻¹; in data set [3] (hydroalcoholic solution (15% propylene glycol, 15% alcohol), unbuffered), 0.0709 day⁻¹. Further, in data set [3] (pH 3 sodium tartrate vs no buffer), the “stability of buffered relative to unbuffered preparation” value is recorded as “approximately twice as stable”. Also, in data set [4], the degraded at 168 h amounted to 10%.
